biological target: rhSYK (Homo sapiens (Human), UniProt P43405); settings: read-out: rhSYK activity

| IC50 [µM] | Structure (SMILES) |
| --- | --- |
| < 0.1 | Cc1cc(Nc2nccc(C(F)(F)F)n2)cc(-c2cnc(C3(C)OC(=O)CC3(C)C)s2)c1 (centres unmarked) [Example 4B-61] |
| < 0.1 | COc1nc(Nc2cc(C)cc(-c3cnc(C(C)(O)CO)s3)c2)ncc1Cl (centres unmarked) [Ex 5-19] |
| 0.1 to 1 | CCOC(=O)C1CCC(c2ncc(-c3cc(C)cc(Nc4nccc(C(F)(F)F)n4)c3)s2)CC1 (centres unmarked) [Example 35, ethyl 4-[5-(3-methyl-5-{[4-(trifluoromethyl)pyrimidin-2-yl]amino}phenyl)-1,3-thiazol-2-yl]cyclohexanecarboxylate] |
| < 0.1 | Cc1cc(Nc2nccc(C)n2)cc(-c2cnc(C3(O)CCC(C(=O)O)[C@H]4CCCC[C@@H]43)s2)c1 (some centres unmarked) [Example 4B-23] |
| < 0.1 | Cc1cc(Nc2nccc(C(F)(F)F)n2)cc(-c2cnc(C3(NC(N)=O)CCC3)s2)c1 [Example 64, 1-{1-[5-(3-methyl-5-{[4-(trifluoromethyl)pyrimidin-2-yl]amino}phenyl)-1,3-thiazol-2-yl]cyclobutyl}urea] |
| < 0.1 | Cc1cc(Nc2nccc(C(F)(F)F)n2)cc(-c2cnc(C3(O)CCOCC3)s2)c1 [Example 4B-13] |
| < 0.1 | CC(O)(c1ncc(-c2cccc(Nc3nccc(C(F)(F)F)n3)c2)s1)C1CCNCC1 (centres unmarked) [Example 15(2), 1-(piperidin-4-yl)-1-[5-(3-{[4-(trifluoromethyl)pyrimidin-2-yl]amino}phenyl)-1,3-thiazol-2-yl]ethanol] |
| < 0.1 | Cc1cc(Nc2nccc(C(F)(F)F)n2)cc(-c2cnc(C(C)C)s2)c1 [Example 13, N-{3-methyl-5-[2-(1-methylethyl)-1,3-thiazol-5-yl]phenyl}-4-(trifluoromethyl)pyrimidin-2-amine] |
| 0.1 to 1 | CSc1ccc(C(C)(O)c2ncc(-c3cc(C)cc(Nc4nccc(C(F)(F)F)n4)c3)s2)cc1 (centres unmarked) [Example 4A-57, 1-[4-(methylsulfanyl)phenyl]-1-[5-(3-methyl-5-{[4-(trifluoromethyl)pyrimidin-2-yl]amino}phenyl)-1,3-thiazol-2-yl]ethanol] |
| < 0.1 | Cc1cc(Nc2nccc(C(F)(F)F)n2)cc(-c2cnc(C3(NS(N)(=O)=O)COC3)s2)c1 [Example 63, N-{3-[5-(3-methyl-5-{[4-(trifluoromethyl)pyrimidin-2-yl]amino}phenyl)-1,3-thiazol-2-yl]oxetan-3-yl}sulfuric diamide] |
| 0.1 to 1 | Cc1cc(Nc2nccc(C(F)(F)F)n2)cc(-c2cnc(C3(O)CCN(C(=O)OC(C)(C)C)C(C(F)(F)F)C3)s2)c1 (centres unmarked) [4D-15] |
| < 0.1 | Cc1cc(Nc2nccc(C(F)(F)F)n2)cc(-c2cnc(C(C)(C)S(C)(=O)=O)s2)c1 [Example 73, N-(3-methyl-5-{2-[2-(methylsulfonyl)propan-2-yl]-1,3-thiazol-5-yl}phenyl)-4-(trifluoromethyl)pyrimidin-2-amine] |
| < 0.1 | COC(=O)C1CCC(O)(c2ncc(-c3cc(C)cc(Nc4nccc(C)n4)c3)s2)CC1C(C)C (centres unmarked) [Example 4C-17] |
| < 0.1 | Cc1cc(Nc2nccc(C(F)(F)F)n2)cc(-c2cnc(C(O)CCc3c[nH]cn3)s2)c1 (centres unmarked) [Example 4A-40, 3-(1H-imidazol-4-yl)-1-[5-(3-methyl-5-{[4-(trifluoromethyl)pyrimidin-2-yl]amino}phenyl)-1,3-thiazol-2-yl]propan-1-ol] |
| 0.1 to 1 | Cc1cc(Nc2nccc(C(F)(F)F)n2)cc(-c2cnc(C(C)(O)c3ccc(CC(=O)O)cc3)s2)c1 (single isomer, unassigned) [Example 4A-59] |
| < 0.1 | Cc1cc(Nc2nccc(C(F)(F)F)n2)cc(-c2cnc(C3(O)CCN(C(=O)OC(C)(C)C)CC3)s2)c1 [Example 45, tert-butyl 4-hydroxy-4-[5-(3-methyl-5-{[4-(trifluoromethyl)pyrimidin-2-yl]amino}phenyl)-1,3-thiazol-2-yl]piperidine-1-carboxylate] |
| < 0.1 | Cc1cc(Nc2nccc(C(F)(F)F)n2)cc(-c2cnc(C3CCC(=O)O3)s2)c1 (centres unmarked) [Example 4B-60] |
| < 0.1 | Cc1cc(Nc2nccc(C(F)(F)F)n2)cc(-c2cnc(C3(O)CC4(C(=O)O)CCC3(C)C4(C)C)s2)c1 (centres unmarked) [Example 4B-49] |
| < 0.1 | Cc1cc(Nc2nccc(C(F)(F)F)n2)cc(-c2cnc(C3(O)CCN(C(N)=O)CC3)s2)c1 [Example 47, 4-hydroxy-4-[5-(3-methyl-5-{[4-(trifluoromethyl)pyrimidin-2-yl]amino}phenyl)-1,3-thiazol-2-yl]piperidine-1-carboxamide] |
| < 0.1 | Cc1cc(Nc2nccc(C)n2)cc(-c2cnc(C3(O)CCC(C)(CC(=O)O)CC3)s2)c1 (single isomer, unassigned) [Example 4C-12] |
| < 0.1 | Cc1cc(Nc2ncc(Cl)c(C)n2)cc(-c2cnc(C(C)(O)CO)s2)c1 (centres unmarked) [Ex 5-14] |
| < 0.1 | Cc1cc(Nc2nccc(C(F)(F)F)n2)cc(-c2cnc(C3(O)C=CCCCC3)s2)c1 (centres unmarked) [Example 4B-55] |
| < 0.1 | Cc1cc(Nc2nccc(C(F)(F)F)n2)cc(-c2cnc(C3(O)CN(C(C)(C)C(=O)O)C3)s2)c1 [Example 53(1), 2-{3-Hydroxy-3-[5-(3-methyl-5-{[4-(trifluoromethyl)pyrimidin-2-yl]amino}phenyl)-1,3-thiazol-2-yl]azetidin-1-yl}-2-methylpropanoic acid] |
| < 0.1 | CC(=O)N1CCC(O)(c2ncc(-c3cc(C)cc(Nc4nccc(C(F)(F)F)n4)c3)s2)CC1 [Example 51, 1-(4-hydroxy-4-[5-(3-methyl-5-{[4-(trifluoromethyl)pyrimidin-2-yl]amino}phenyl)-1,3-thiazol-2-yl]piperidin-1-yl)ethanone] |
| < 0.1 | C#Cc1cc(Nc2nccc(C(F)(F)F)n2)cc(-c2cnc(C(C)(C)O)s2)c1 [Example 29, 2-[5-(3-ethynyl-5-{[4-(trifluoromethyl)pyrimidin-2-yl]amino}phenyl)-1,3-thiazol-2-yl]propan-2-ol] |
| < 0.1 | Cc1cc(Nc2nccc(C(F)(F)F)n2)cc(-c2cnc(C3(O)COC(C)(C)OC3)s2)c1 [Example 4B-14] |

| Structure (SMILES) | IC50 [µM] |
| --- | --- |
| CCOC(=O)C1CCC(O)(c2ncc(-c3cc(C)cc(N(C(=O)OC(C)(C)C)c4nccc(C(F)(F)F)n4)c3)s2)CC1 (centres unmarked) [Intermediate 119, Ethyl 4-[5-(3-{(tert-butoxycarbonyl)[4-(trifluoromethyl)pyrimidin-2-yl]amino}-5-methylphenyl)-1,3-thiazol-2-yl]-4-hydroxycyclohexanecarboxylate] | 1 to 10 |

biological target: recombinant human SYK (GST-hSYK fusion protein) (Homo sapiens (Human), UniProt P43405); settings: read-out: rhSYK Activity; Table 21
Source text: Homogeneous Time-Resolved Fluorescence (HTRF) Assay for the Recombinant Human SYK Enzyme:

| IC50 [µM] | Structure (SMILES) |
| --- | --- |
| < 0.1 | FC(F)(F)c1ccnc(Nc2cccc(-c3cnc(CCN4CCCC4=S)s3)c2)n1 [Example 21-16] |
| < 0.1 | O=C(NC1CC1)C1CCC(c2ncc(-c3cccc(Nc4nccc(C(F)(F)F)n4)c3)s2)CC1 (centres unmarked) [Example 21-13] |

same assay, conditions: read-out: rhSYK Activity; Table 26

| IC50 [µM] | Structure (SMILES) |
| --- | --- |
| 0.1 to 1 | CCOC(=O)C1CCC(F)(c2ncc(-c3cccc(Nc4nccc(C(F)(F)F)n4)c3)s2)CC1 (centres unmarked) [Example 26-4] |

same assay, conditions: read-out: rhSYK Activity; Table 33-A

| IC50 [µM] | Structure (SMILES) |
| --- | --- |
| < 0.1 | CCOC(=O)C1CCC(O)(c2ncc(-c3cc(C)cc(Nc4nccc(C(F)(F)F)n4)c3)s2)CC1 (centres unmarked) [33A-5] |

same assay, conditions: read-out: rhSYK Activity; Table 33B

| IC50 [µM] | Structure (SMILES) |
| --- | --- |
| < 0.1 | COC1CC(O)(c2ncc(-c3cc(C)cc(Nc4nccc(C(F)(F)F)n4)c3)s2)CCC1C(=O)O (centres unmarked) [Example 33B-14] |
| < 0.1 | Cc1cc(Nc2nccc(C(F)(F)F)n2)cc(-c2cnc(C3(O)CCC(C(=O)O)C(C(C)C)C3)s2)c1 (single isomer, unassigned) [Example 33B-22] |

same assay, conditions: read-out: rhSYK Activity; Table 33D

| IC50 [µM] | Structure (SMILES) |
| --- | --- |
| < 0.1 | Cc1cc(Nc2nccc(C(F)(F)F)n2)cc(-c2cnc(C(C)(O)c3ccc(NC(=O)CCCC(=O)O)cc3)s2)c1 (centres unmarked) [Example 33D-15] |

same assay, conditions: read-out: rhSYK Activity; Table 36A

| IC50 [µM] | Structure (SMILES) |
| --- | --- |
| < 0.1 | Cc1cc(Nc2nccc(C(F)(F)F)n2)cc(-c2cnc(C3CCCCC(=O)C3)s2)c1 (centres unmarked) [Example 36A-10] |

same assay, conditions: read-out: rhSYK Activity; Table 113C

| IC50 [µM] | Structure (SMILES) |
| --- | --- |
| < 0.1 | Cc1cc(Nc2nccc(C(C)(C)C)n2)cc(-c2cnc(C3(O)CCNC(=O)CC3)s2)c1 (centres unmarked) [113C-9] |
| < 0.1 | Cc1cc(Nc2nccc(C3CC3)n2)cc(-c2cnc(C3(O)CCCN(C(=O)OC(C)(C)C)CC3)s2)c1 (single isomer, unassigned) [113C-17] |
| 1 to 10 | Cc1cc(Nc2nccc(C(C)C)n2)cc(-c2cnc(C3(O)CCCN(C(=O)OC(C)(C)C)CC3)s2)c1 (single isomer, unassigned) [113C-21] |
| < 0.1 | Cc1cc(Nc2nccc(C3CC3)n2)cc(-c2cnc(C3(O)CCCNCC3)s2)c1 (centres unmarked) [113C-13] |

same assay, conditions: read-out: rhSYK Activity; Table 116A

| IC50 [µM] | Structure (SMILES) |
| --- | --- |
| 0.1 to 1 | Cc1cc(Nc2ncc(Cl)c(O)n2)cc(-c2cnc(C3(O)CCC(C(=O)O)C(C)(C)C3)s2)c1 (centres unmarked) [116A-29] |

same assay, conditions: read-out: rhSYK Activity; Table 119; HTRF assay, IC50 class symbols

| IC50 [µM] | Structure (SMILES) |
| --- | --- |
| < 0.1 | Cc1cc(Nc2nccc(C(F)(F)F)n2)cc(-c2cnc(C3(O)CCC(C(=O)NCc4ccns4)CC3)s2)c1 (centres unmarked) [Example 119-66] |
| < 0.1 | Cc1cc(Nc2nccc(C(F)(F)F)n2)cc(-c2cnc(C3(O)CCC(C(=O)NCCN4CCCCC4=O)CC3)s2)c1 (centres unmarked) [Example 119-89] |
| < 0.1 | Cc1cc(Nc2nccc(C(F)(F)F)n2)cc(-c2cnc(C3(O)CCC(C(=O)NCc4cnoc4)CC3)s2)c1 (centres unmarked) [Example 119-41] |

same assay, conditions: read-out: rhSYK Activity; recombinant human SYK, HTRF assay; class symbols

| IC50 [µM] | Structure (SMILES) |
| --- | --- |
| < 0.1 | Cc1cc(Nc2nccc(C(F)(F)F)n2)cc(-c2cnc(C3(O)CCCN(C(=O)c4ccc(O)c(F)c4)CC3)s2)c1 (racemic) [Example 54D-103] |
| < 0.1 | COC(=O)c1cccc(N2CCC(O)(c3ncc(-c4cc(C)cc(Nc5nccc(C(F)(F)F)n5)c4)s3)C2)c1 (centres unmarked) [Example 54B-35] |
| < 0.1 | Cc1cc(Nc2nccc(C(F)(F)F)n2)cc(-c2cnc(C3(O)CCN(C(=O)Nc4ccc(Cl)cc4C)CC3)s2)c1 [Example 54A-69] |
| < 0.1 | Cc1cc(Nc2nccc(C(F)(F)F)n2)cc(-c2cnc(C3(O)CCN(C(=O)c4ocnc4C)C3)s2)c1 (centres unmarked) [Example 54B-31] |
| < 0.1 | COc1nc(Nc2cc(C)cc(-c3cnc(C4(O)CCN(C(N)=O)C4)s3)c2)ncc1F (centres unmarked) [Example 54B-18] |
| < 0.1 | Cc1cc(Nc2nccc(C(F)(F)F)n2)cc(-c2cnc(C3(O)CCN(C(=O)Nc4ccc(C)cc4C)CC3)s2)c1 [Example 54A-66] |
| < 0.1 | Cc1ccc(NC(=O)N2CCC(O)(c3ncc(-c4cc(C)cc(Nc5nccc(C(F)(F)F)n5)c4)s3)CC2)cc1 [Example 54A-62] |

From patent US8759366B2, “Aminopyrimidines as SYK inhibitors” (Merck Sharp & Dohme Corp., priority 2009, dated 2014)
